Measured values from patent publication US20230226092A1, “CANCER […] ON G[…]” (NuCana plc, priority 2015, published 2023).

Tested on: primary acute myeloid leukaemia (AML) blasts
Test: In vitro cytotoxicity assay (annexin V apoptosis) in primary acute myeloid leukemia cells
Format: cell-based, human
Method: NUC-1031 was assayed for its cytotoxic effects on primary cultures of acute myeloid leukaemia (AML) blasts. LD50 values (the concentration required to kill 50% of the tumour cells in culture) were calculated in respect of NUC-1031 and gemcitabine.
Bone marrow samples were collected in ethylenediaminetetraacetic acid (EDTA) from newly diagnosed, previously untreated, acute myeloid leukemia (AML) patients. AML blasts were enriched by density gradient centrifugation using Histopaque (Sigma, Poole, UK) and were subsequently maintained in Roswell Park Memorial Institute medium (RPMI) supplemented with 10% foetal bovine serum (FBS). Cells were treated with Gemcitabine or NUC-1031 at concentrations between 0.25 µM and 10 µM, and incubated for 48h. All cultures were maintained at 37° C. in a 5% CO2 humidified atmosphere.
Cells were harvested and labelled with CD34-fluorescein isothiocyanate (FITC) (BD Biosciences, Buckingham, UK) and then resuspended in 200 µl of binding buffer containing 4µl of annexin V labelled with allophycocyanin (APC) (eBioscience Ltd, Hatfield, UK). Apoptosis was quantified in the CD34^+ AML cells using an Accuri C6 flow cytometer (Becton Dickinson, CA, USA). At least 10,000 events were acquired and data were subsequently analysed using FlowJo software (Tree Star Inc., Ashland, OR, USA). All LD50 values (concentration of drug required to kill 50% of cells) were derived from the dose-response curves.

“gemcitabine-[phenyl-benzoxy-L-alaninyl)]-phosphate [NUC-1031]” was tested, and the “cytotoxic potency on CSCs and non-stem cancer cells compared with gemcitabine” value (AML blast cultures) was “increased potency” and the “mean LD50” value (primary AML blasts, CD34+ cells, 48h, annexin V) was 1.6 µM.
